Laboratory results as given in ChEMBL document CHEMBL1201862, “PubChem BioAssay data set” (2004).
Structures can show the parent of a compound that is named as a salt.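 Dose response: 5 concentrations. Exposure: 48 h. Format: 96-well plates. Endpoint: linear interpolation; highest concentration if not reached. GI50 = concentration required for 50% inhibition of growth.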 Calls of active or inactive are those of the source. Cut-off read from the data, not from the text of the source: active = GI50 up to about 1.1 µM and inactive = higher.

What was measured:
Test in all cases: growth of human tumour cells (NCI), 48 h
[1] = tested on: IGROV-1
[2] = tested on: UACC-257
[3] = tested on: SF-268
[4] = tested on: SF-295
[5] = tested on: SF-539
[6] = tested on: HCT-116
[7] = tested on: HL-60
[8] = tested on: KM12
[9] = tested on: NCI-H23
[10] = tested on: SK-MEL-5
[11] = tested on: SW-620
[12] = tested on: MOLT-4
[13] = tested on: RPMI-8226
[14] = tested on: COLO 205
[15] = tested on: PC-3
[16] = tested on: BT-549
[17] = tested on: OVCAR-3
[18] = tested on: UO-31
[19] = tested on: MDA-N
[20] = tested on: NCI/ADR-RES
[21] = tested on: HCC 2998
[22] = tested on: SNB-75
[23] = tested on: NCI-H522
[24] = tested on: ACHN
[25] = tested on: MDA-MB-231
[26] = tested on: HOP-62
[27] = tested on: EKVX
[28] = tested on: A498
[29] = tested on: RXF 393
[30] = tested on: DU-145
[31] = tested on: T47D
[32] = tested on: SN12C
[33] = tested on: NCI-H226
[34] = tested on: MDA-MB-435
[35] = tested on: OVCAR-4
[36] = tested on: K562
[37] = tested on: 786-0
[38] = tested on: UACC-62
[39] = tested on: SR
[40] = tested on: CCRF-CEM
[41] = tested on: TK-10
[42] = tested on: SNB-19
[43] = tested on: MCF7
[44] = tested on: M14
[45] = tested on: Malme-3M
[46] = tested on: LOX IMVI
[47] = tested on: SK-OV-3
[48] = tested on: A549
[49] = tested on: OVCAR-8
[50] = tested on: HCT-15
[51] = tested on: U-251
[52] = tested on: HT-29
[53] = tested on: OVCAR-5
[54] = tested on: SK-MEL-2
[55] = tested on: SK-MEL-28
[56] = tested on: HOP-92
[57] = tested on: CAKI-1
[58] = tested on: Hs-578T
[59] = tested on: NCI-H460

CC(=O)OC(C)c1cc2c(s1)C(=O)c1ccsc1C2=O (stereo unspecified)
GI50 [1]: 659 nM (active) | GI50 [2]: 28 nM (active) | GI50 [3]: 213 nM (active) | GI50 [4]: 113 nM (active) | GI50 [5]: 52.8 nM (active) | GI50 [6]: 226 nM (active) | GI50 [7]: 12.2 nM (active) | GI50 [8]: 169 nM (active) | GI50 [9]: 57.5 nM (active) | GI50 [10]: 27.3 nM (active) | GI50 [11]: 324 nM (active) | GI50 [12]: 262 nM (active) | GI50 [13]: 82.6 nM (active) | GI50 [14]: 776 nM (active) | GI50 [15]: 41 nM (active) | GI50 [16]: 167 nM (active) | GI50 [17]: 40.5 nM (active) | GI50 [18]: 184 nM (active) | GI50 [19]: 20.6 nM (active) | GI50 [20]: 271 nM (active) | GI50 [21]: 451 nM (active) | GI50 [22]: 148 nM (active) | GI50 [23]: 149 nM (active) | GI50 [24]: 158 nM (active) | GI50 [25]: 209 nM (active) | GI50 [26]: 137 nM (active) | GI50 [27]: 773 nM (active) | GI50 [28]: 1820 nM (inactive) | GI50 [29]: 206 nM (active) | GI50 [30]: 118 nM (active) | GI50 [31]: 437 nM (active) | GI50 [32]: 156 nM (active) | GI50 [33]: 1610 nM (inactive) | GI50 [34]: 16.8 nM (active) | GI50 [35]: 664 nM (active) | GI50 [36]: 131 nM (active) | GI50 [37]: 286 nM (active) | GI50 [38]: 81.1 nM (active) | GI50 [39]: 74.8 nM (active) | GI50 [40]: 204 nM (active) | GI50 [41]: 1220 nM (inactive) | GI50 [42]: 166 nM (active) | GI50 [43]: 51.3 nM (active) | GI50 [44]: 129 nM (active) | GI50 [45]: 102 nM (active) | GI50 [46]: 11.7 nM (active) | GI50 [47]: 2070 nM (inactive) | GI50 [48]: 1370 nM (inactive) | GI50 [49]: 228 nM (active) | GI50 [50]: 124 nM | GI50 [51]: 165 nM (active) | GI50 [52]: 170 nM (active) | GI50 [53]: 458 nM (active) | GI50 [54]: 483 nM (active) | GI50 [55]: 172 nM (active) | GI50 [56]: 372 nM (active) | GI50 [57]: 895 nM (active) | GI50 [58]: 154 nM (active)

CC(C)C[C@H]1C(=O)N2CCC[C@H]2[C@]2(O)O[C@](NC(=O)[C@@H]3C=C4c5cccc6[nH]c(Br)c(c56)C[C@H]4N(C)C3)(C(C)C)C(=O)N12 [BROMOCRIPTINE MESYLATE]
GI50 [1]: 67500 nM (inactive) | GI50 [2]: 49500 nM (inactive) | GI50 [3]: 59600 nM (inactive) | GI50 [4]: 39800 nM (inactive) | GI50 [5]: > 100000 nM (inactive) | GI50 [6]: 5330 nM (inactive) | GI50 [7]: 2510 nM (inactive) | GI50 [8]: 9820 nM (inactive) | GI50 [10]: 21700 nM (inactive) | GI50 [11]: 72600 nM (inactive) | GI50 [12]: 4340 nM (inactive) | GI50 [13]: 3800 nM (inactive) | GI50 [14]: 5270 nM (inactive) | GI50 [15]: 4170 nM (inactive) | GI50 [16]: > 100000 nM (inactive) | GI50 [17]: 8870 nM (inactive) | GI50 [18]: 4610 nM (inactive) | GI50 [19]: 69800 nM (inactive) | GI50 [20]: 9350 nM (inactive) | GI50 [21]: 32800 nM (inactive) | GI50 [22]: 40900 nM (inactive) | GI50 [23]: 34000 nM (inactive) | GI50 [24]: 13000 nM (inactive) | GI50 [25]: > 100000 nM (inactive) | GI50 [26]: > 100000 nM (inactive) | GI50 [27]: 4740 nM (inactive) | GI50 [28]: > 100000 nM (inactive) | GI50 [29]: 24700 nM (inactive) | GI50 [30]: > 100000 nM (inactive) | GI50 [31]: 28200 nM (inactive) | GI50 [32]: 56100 nM (inactive) | GI50 [33]: 51200 nM (inactive) | GI50 [34]: 38200 nM (inactive) | GI50 [35]: > 100000 nM (inactive) | GI50 [59]: 10800 nM (inactive) | GI50 [36]: 4650 nM (inactive) | GI50 [37]: 53200 nM (inactive) | GI50 [38]: > 100000 nM (inactive) | GI50 [39]: 6110 nM (inactive) | GI50 [40]: 4560 nM (inactive) | GI50 [41]: 15100 nM (inactive) | GI50 [42]: > 100000 nM (inactive) | GI50 [43]: 8870 nM (inactive) | GI50 [44]: 61100 nM (inactive) | GI50 [45]: 36500 nM (inactive) | GI50 [46]: > 100000 nM (inactive) | GI50 [47]: > 100000 nM (inactive) | GI50 [48]: 6980 nM (inactive) | GI50 [49]: > 100000 nM (inactive) | GI50 [50]: 8670 nM | GI50 [51]: 35800 nM (inactive) | GI50 [52]: 13600 nM (inactive) | GI50 [53]: > 100000 nM (inactive) | GI50 [54]: > 100000 nM (inactive) | GI50 [55]: > 100000 nM (inactive) | GI50 [56]: > 100000 nM (inactive) | GI50 [57]: 46100 nM (inactive) | GI50 [58]: 25200 nM (inactive)
